Literature values, collected in US8138189B2, “Substituted benzene compounds as modulators of the glucocorticoid receptor” (Hoffman-La Roche Inc., priority 2009, dated 2012).

What was measured:
[1] = test system: Hypothalamus-Pituitary gland-Adrenal gland (HPA) axis; conditions: cited from earlier work
ob/ob mice = conditions: cited from earlier work
normal volunteers = conditions: acute; cited from earlier work
Cushing's patients = conditions: chronic; cited from earlier work
db/db mice = conditions: cited from earlier work

CC#C[C@]1(O)CC[C@H]2[C@@H]3CCC4=CC(=O)CCC4=C3[C@@H](c3ccc(N(C)C)cc3)C[C@@]21C [RU486/mifepristone, mifepristone]
effect on HPA axis / endogenous corticosteroids circulating in the blood ([1]; feed-back mechanism): increase of endogenous corticosteroids circulating in the blood | adrenal insufficiency symptoms ([1]; long term treatment (up to 1 year)): induces some adrenal insufficiency symptoms | fasting plasma glucose (ob/ob mice): normalizes fasting plasma glucose | fasting plasma glucose (normal volunteers): decrease of fasting plasma glucose | plasmatic HbA1c (Cushing's patients): decrease of plasmatic HbA1c | activity of gluconeogenic enzymes (db/db mice): normalizes
